PubChem BioAssay AID200 (DTP/NCI, 2004)
Values joined by “and” are separate entries in the source; they are usually repeats but may differ in a detail not shown here. Equal values may be shown once. Inconclusive results and toxic doses are left out. Where a SMILES comes first, the peptide text is derived from it.

Tested on: B6C3F1 mice, B16 melanoma ip, median survival T/C
Assay: NCI In Vivo Anticancer Drug Screen. Data for tumor model B16 Melanoma (intraperitoneal) in B6C3F1 mice
Conditions: endpoint: median survival time, schedule: Q01DX009 (ip), higher = longer survival
Procedure, shortened: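 Values are T/C ratios: the measurement in treated animals divided by that in vehicle-treated controls, using survival or tumor size in mice carrying transplantable tumors.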

[1] = dose: 25.0 mg/kg/injection, vehicle: saline
[2] = dose: 50.0 mg/kg/injection, vehicle: saline
[3] = dose: 100.0 mg/kg/injection, vehicle: saline
[4] = dose: 200.0 mg/kg/injection, vehicle: saline
[5] = dose: 6.25 mg/kg/injection, vehicle: Klucel (hydroxypropylcellulose) (HPC)
[6] = dose: 50.0 mg/kg/injection, vehicle: Klucel (hydroxypropylcellulose) (HPC)
[7] = dose: 200.0 mg/kg/injection, vehicle: saline with Tween-80
[8] = dose: 12.5 mg/kg/injection, vehicle: saline with Tween-80
[9] = dose: 25.0 mg/kg/injection, vehicle: saline with Tween-80
[10] = dose: 50.0 mg/kg/injection, vehicle: saline with Tween-80
[11] = dose: 100.0 mg/kg/injection, vehicle: saline with Tween-80
[12] = dose: 400.0 mg/kg/injection, vehicle: saline with Tween-80

With `CC(=O)CC(=O)CCC(=O)O` the T/C [1] was 97 % of control, the T/C [2] was 97 % of control and the T/C [3] was 93 % of control.

For `O=C(O)CNc1ccc(O)cc1`, the T/C [1] was 104 % of control, the T/C [2] was 105 % of control and the T/C (dose: 75.0 mg/kg/injection, vehicle: saline) was 105 % of control. The T/C [3] was 112 % of control and 121 % of control, the T/C (dose: 150.0 mg/kg/injection, vehicle: saline) was 105 % of control and the T/C [4] was 100 % of control and 101 % of control.

`O=C(O)CCC(NC(=O)OCc1ccccc1)C(=O)NCC(=O)O` (stereo not drawn) (HELM PEPTIDE1{[O=C(OCc1ccccc1)[*:2]].[O=C(O)CCC(N[*:1])C(=O)[*:2]].G}$$$$V2.0) was tested, and the T/C [1] was 102 % of control, the T/C [2] was 97 % of control and the T/C [3] was 107 % of control. The T/C [4] was 113 % of control and the T/C (dose: 400.0 mg/kg/injection, vehicle: saline) was 112 % of control.

For `O=C1CCCCCC2=NC12` (stereo not drawn), the T/C [5] was 95 % of control, the T/C (dose: 12.5 mg/kg/injection, vehicle: Klucel (hydroxypropylcellulose) (HPC)) was 91 % of control and the T/C (dose: 25.0 mg/kg/injection, vehicle: Klucel (hydroxypropylcellulose) (HPC)) was 87 % of control. The T/C [6] was 98 % of control.

With `Oc1cc2ccccc2c(-c2c(O)c(O)cc3ccccc23)c1O` the T/C (dose: 0.78 mg/kg/injection, vehicle: saline with Tween-80) was 95 % of control, the T/C (dose: 1.56 mg/kg/injection, vehicle: saline with Tween-80) was 115 % of control and the T/C (dose: 3.12 mg/kg/injection, vehicle: saline with Tween-80) was 99 % of control. The T/C (dose: 6.25 mg/kg/injection, vehicle: saline with Tween-80) was 111 % of control and 93 % of control and the T/C [7] was 100 % of control.

In the case of `Cc1cccc(Nc2c(N)nc(N)nc2N)c1`, the T/C [6] is reported as 102 % of control and the T/C (dose: 75.0 mg/kg/injection, vehicle: Klucel (hydroxypropylcellulose) (HPC)) is reported as 99 % of control.

`Cc1ccc(C(=N)c2ccccc2Cc2cccc3ccccc23)c(C)c1` was tested, and the T/C (dose: 0.75 mg/kg/injection, vehicle: saline with Tween-80) was 107 % of control, the T/C (dose: 1.5 mg/kg/injection, vehicle: saline with Tween-80) was 112 % of control and the T/C (dose: 3.0 mg/kg/injection, vehicle: saline with Tween-80) was 97 % of control. For the same compound, the T/C (dose: 6.0 mg/kg/injection, vehicle: saline with Tween-80) was 98 % of control.

With `CC(=O)OC1C(C)OC(OC(=O)C2CCC3C(C2)OC2(CC(OC(=O)/C=C/c4ccccc4)C(C)CO2)C32CO2)C(OC2OC(C)C(O)C(OC(C)=O)C2O)C1O` (stereo not drawn) the T/C (dose: 0.75 mg/kg/injection, vehicle: saline + alcohol) was 100 % of control, the T/C (dose: 1.5 mg/kg/injection, vehicle: saline + alcohol) was 99 % of control and the T/C (dose: 3.0 mg/kg/injection, vehicle: saline + alcohol) was 99 % of control. The T/C (dose: 4.0 mg/kg/injection, vehicle: saline + Tween-80 + alcohol) was 122 % of control, the T/C (dose: 16.0 mg/kg/injection, vehicle: saline + Tween-80 + alcohol) was 161 % of control and the T/C (dose: 32.0 mg/kg/injection, vehicle: saline + Tween-80 + alcohol) was 174 % of control. The T/C (dose: 64.0 mg/kg/injection, vehicle: saline + Tween-80 + alcohol) was 201 % of control.

`O=C(NC1CCCCC1)OCc1c(COC(=O)NC2CCCCC2)c(-c2ccc(Cl)c(Cl)c2)n2c1CCC2` was tested, and the T/C [8] was 190 % of control, the T/C [9] was 162 % of control and 222 % of control and the T/C [10] was 199 % of control and 235 % of control. For the same compound, the T/C [11] was 203 % of control and 316 % of control, the T/C [7] was 181 % of control and 214 % of control and the T/C [12] was 112 % of control.

For `CC(NC(=O)C(Cc1cnc[nH]1)NC(=O)OCc1ccccc1)C(=O)O` (stereo not drawn), the T/C (dose: 100.0 mg/kg/injection, vehicle: Klucel (hydroxypropylcellulose) (HPC)) was 98 % of control, the T/C (dose: 200.0 mg/kg/injection, vehicle: Klucel (hydroxypropylcellulose) (HPC)) was 104 % of control and the T/C (dose: 400.0 mg/kg/injection, vehicle: Klucel (hydroxypropylcellulose) (HPC)) was 98 % of control.

`Cc1ccc(NC(=O)Oc2ccc(Br)cc2Br)c([N+](=O)[O-])c1` was tested, and the T/C [8] was 105 % of control, the T/C [9] was 104 % of control and the T/C [10] was 105 % of control. The T/C [11] was 101 % of control, the T/C [7] was 103 % of control and the T/C [12] was 107 % of control.

With `CCCNC1=C(C)C(=O)C2=C(C1=O)[C@H](COC(N)=O)[C@]1(OC)[C@@H]3N[C@@H]3CN21` the T/C (dose: 0.39 mg/kg/injection, vehicle: Klucel (hydroxypropylcellulose) (HPC)) was 104 % of control, the T/C (dose: 0.39 mg/kg/injection, vehicle: saline) was 115 % of control and the T/C (dose: 0.78 mg/kg/injection, vehicle: Klucel (hydroxypropylcellulose) (HPC)) was 105 % of control. The T/C (dose: 1.56 mg/kg/injection, vehicle: Klucel (hydroxypropylcellulose) (HPC)) was 105 % of control, the T/C (dose: 1.56 mg/kg/injection, vehicle: saline) was 155 % of control and the T/C (dose: 3.12 mg/kg/injection, vehicle: Klucel (hydroxypropylcellulose) (HPC)) was 96 % of control. For the same compound, the T/C (dose: 3.12 mg/kg/injection, vehicle: saline) was 173 % of control and the T/C [5] was 111 % of control.

For `C=C(C)[C@H]1CN[C@H](C(=O)O)[C@H]1CC(=O)O`, the T/C (dose: 0.31 mg/kg/injection, vehicle: saline) was 96 % of control, the T/C (dose: 0.62 mg/kg/injection, vehicle: saline) was 100 % of control and the T/C (dose: 1.25 mg/kg/injection, vehicle: saline) was 91 % of control. For the same compound, the T/C (dose: 2.5 mg/kg/injection, vehicle: saline) was 100 % of control, the T/C (dose: 5.0 mg/kg/injection, vehicle: saline) was 90 % of control and the T/C (dose: 6.25 mg/kg/injection, vehicle: saline) was 102 % of control. The T/C (dose: 10.0 mg/kg/injection, vehicle: saline) was 86 % of control, the T/C (dose: 12.5 mg/kg/injection, vehicle: saline) was 101 % of control and the T/C [1] was 93 % of control.
